Laboratory results as given in US20240226049A1, “METHODS OF TREATMENT USING BEMPEDOIC ACID” (Esperion Therapeutics, Inc., priority 2023, published 2024).

How the values were obtained:
[1] = tested on: primary prevention patients unable to tolerate recommended doses of statins; test: CLEAR OUTCOMES primary prevention subgroup (Example 2): effects on LDL cholesterol and hsCRP; type: in vivo, human
Protocol: The rationale, design and methods of the CLEAR Outcomes trial is described in Example 1. The trial was conducted at 1250 sites in 32 countries and designed by the Cleveland Clinic Coordinating Center for Clinical Research (C5Research) and an academic Executive Committee in collaboration with the sponsor. The protocol was approved by ethics committees at participating sites and all patients provided written informed consent before enrollment. A contract research organization collected the data which were transferred to C5Research at completion of the trial whose statisticians conducted the analyses described herein. An independent Data Monitoring Committee monitored the trial.
Primary prevention patients 18 to 85 years of age with an LDL cholesterol ≥100 mg/dL with clinical features placing them at high risk for a first cardiovascular event were eligible. Criteria for high cardiovascular risk included risk scores, such as the Reynolds Risk Score and the SCORE project (Ridker et al., Development and validation of improved algorithms for the assessment of global cardiovascular risk in women: the Reynolds Risk Score, JAMA. 2007 Feb. 14; 297(6):611-9; Ridker et al., C-reactive protein and parental history improve global cardiovascular risk prediction. The Reynolds Risk Score for men, Circulation. 2008; 118: 2243-2251; European Guidelines on CVD Prevention in Clinical Practice. 2016. Eur J Prev Cardiol. 2016 July; 23(11):NP1-NP96), a coronary artery calcium score >400 Agatston units (AU) or presence of either type 1 or 2 diabetes in women aged >65 years or men older than 60 years.
Investigators were responsible for assessing the patient for statin intolerance. Patients had to report statin intolerance due to an adverse effect that started or increased during statin therapy and resolved or improved after statin therapy was discontinued. Entry criteria required inability to tolerate 2 or more statins at any dose or 1 statin and unwillingness to attempt a second statin or advised by a physician not to attempt taking a second statin. Both the patient and site investigator were required to provide written confirmation that the patient was statin intolerant and aware of the benefits of statins to reduce the risk of cardiovascular events, including death, and acknowledge that many patients who are unable to tolerate a statin can tolerate a different statin or dose. Patients could be enrolled if they tolerated a very low average daily statin dose defined as rosuvastatin <5 mg, atorvastatin <10 mg, simvastatin <10 mg, lovastatin <20 mg, pravastatin <40 mg, fluvastatin <40 mg, or pitavastatin <2 mg. Other background lipid-lowering therapies were permitted, including ezetimibe, niacin, bile acid resins, fibrates, and/or proprotein convertase subtilisin kexin type 9 (PCSK9) inhibitors.
Eligible patients entered a 4-week run-in period during which patients were treated with single-blind placebo. If patients were intolerant to placebo treatment or if adherence was <80% by tablet count, they were not eligible for randomization. Patients who successfully completed the run-in period were randomly assigned in a 1:1 ratio to receive a 180 mg oral dose of bempedoic acid or matching placebo, administered daily. During the trial, LDL cholesterol and hsCRP results were masked. Beginning 6 months after randomization, the central laboratory notified the investigator, who remained blinded to treatment assignment, if the patient's LDL cholesterol level was ≥25% higher than baseline. Repeat testing was performed after the patient was counseled about diet and encouraged to take all medications as prescribed. The patient returned for a repeat fasting blood lipid profile to confirm whether the LDL cholesterol value exceeded the threshold criteria. If confirmed, the patient's treatment regimen for LDL cholesterol lowering could be adjusted, per standard of care and local practice. […]

[2] = tested on: statin-intolerant patients with or at high risk of CVD; test: CLEAR OUTCOMES trial (Example 1): adverse events and safety laboratory findings; type: in vivo, human
From the text: The CLEAR OUTCOMES trial was a randomized, placebo-controlled, double-blind trial that enrolled patients at 1250 sites in 32 countries. An independent Data Monitoring Committee reviewed safety and efficacy data during the trial.
Patients 18 to 85 years of age were eligible for enrollment if they met either of two criteria for increased cardiovascular risk, a prior cardiovascular event (secondary prevention) or clinical features that placed them at high risk for a cardiovascular event (primary prevention). (Nicholls S. Lincoff A M, Bays H E, et al. Rationale and design of the CLEAR-outcomes trial: Evaluating the effect of bempedoic acid on cardiovascular events in patients with statin intolerance. Am Heart J. 2021 May; 235:104-112) All patients provided written informed consent. Patients had to report statin intolerance due to an adverse effect that started or increased during statin therapy and resolved or improved after statin therapy was discontinued. Patients could be enrolled if they tolerated a very low average daily statin dose (e.g., an average daily dose of rosuvastatin <5 mg, atorvastatin <10 mg, simvastatin <10 mg, lovastatin <20 mg, pravastatin <40 mg, fluvastatin <40 mg, or pitavastatin <2 mg). Other lipid-lowering therapies were permitted, including ezetimibe, niacin, bile acid resins, fibrates, and/or proprotein convertase subtilisin kexin type 9 (PCSK9) inhibitors. Full inclusion and exclusion criteria are provided in Nicholls et al. (Am Heart J. 2021).
Eligible patients entered a 4-week run-in period during which patients were treated with single-blind placebo. If patients were intolerant to placebo treatment or if adherence was <80% by tablet count, they were not eligible for randomization. Patients who successfully completed the run-in period were randomly assigned in a 1:1 ratio to receive bempedoic acid at an oral dose of 180 mg or matching placebo, administered daily. Beginning 6 months after enrollment, the central laboratory notified the investigator if the patient's LDL-cholesterol level was ≥25% higher than baseline. These patients were counseled on healthy dietary guidelines and reminded to take all lipid-regulating medications. If repeat testing confirmed that LDL-cholesterol value met the threshold criteria, the provider could adjust the lipid-lowering treatment regimen per standard of care and local guidelines.

[3] = primary prevention subgroup, vs placebo
[4] = primary prevention, after 12 months treatment
[5] = primary prevention, baseline mean 142.2 mg/dL
[6] = at any visit, repeated and confirmed, N = 7001

CC(C)(CCCCCC(O)CCCCCC(C)(C)C(=O)O)C(=O)O [Bempedoic Acid, Bempedoic acid]
time-averaged difference in LDL cholesterol over the course of the trial [1, 3]: 23.2 mg/dL | time-averaged difference in LDL cholesterol over the duration of the trial, percent [1, 3]: 16.3% | difference in hsCRP reduction compared with placebo [1, 4]: 0.56 mg/L | difference in hsCRP reduction compared with placebo, percent [1, 4]: 21.5% | LS mean difference in LDL cholesterol compared with placebo after 6 months, percent [1, 5]: 21.3% | LS mean reduction in LDL cholesterol compared with placebo after 6 months of treatment [1, 5]: 30.2 mg/dL | reduction of hsCRP after 12 months treatment ([1]; primary prevention, median baseline 2.4 mg/L, bempedoic acid group): 0.34 mg/L | New onset diabetes in patients with normoglycemia at baseline, % ([2]; 180 mg oral daily): 5.5% | New onset diabetes in patients with pre-diabetes at baseline, % ([2]; 180 mg oral daily): 19.5% | Adjudicated tendon rupture, % ([2]; 180 mg oral daily, N = 7001): 1.2% | Adverse event leading to drug discontinuation, % ([2]; 180 mg oral daily, N = 7001): 11.0% | Any muscle disorder, % ([2]; 180 mg oral daily, N = 7001): 15.0% | Any treatment emergent adverse event, % ([2]; 180 mg oral daily, N = 7001): 86.3% | Atrial fibrillation, % ([2]; 180 mg oral daily, N = 7001): 3.3% | Cholelithiasis, % ([2]; 180 mg oral daily, N = 7001): 2.2% | Discontinuation of treatment due to myalgia, % ([2]; 180 mg oral daily, N = 7001): 1.8% | Elevated hepatic enzymes, % ([2]; 180 mg oral daily, N = 7001): 4.5% | Gout, % ([2]; 180 mg oral daily, N = 7001): 3.1% | Hypoglycemia, % ([2]; 180 mg oral daily, N = 7001): 4.3% | Malignancies, % ([2]; 180 mg oral daily, N = 7001): 4.7% | Metabolic acidosis, % ([2]; 180 mg oral daily, N = 7001): 0.2% | Myalgia, % ([2]; 180 mg oral daily, N = 7001): 5.6% | Neurocognitive disorders, % ([2]; 180 mg oral daily, N = 7001): 0.8% | Serious treatment emergent adverse event, % ([2]; 180 mg oral daily, N = 7001): 25.4% | Tendinopathies, % ([2]; 180 mg oral daily, N = 7001): 1.7% | Change from baseline in creatinine levels ([2]; after 6 months): 0.05 ± 0.2 mg/dL | Change from baseline in uric acid levels ([2]; after 6 months): 0.76 ± 1.2 mg/dL | Creatine kinase levels >5x ULN (repeated and confirmed), % ([2]; at any visit, N = 7001): 0.1% | Creatine kinase levels >5x ULN (single occurrence), % ([2]; at any visit, N = 7001): 0.6% | Alanine aminotransferase level >3 times ULN, % [2, 6]: 1.2% | Aspartate aminotransferase level >3 times ULN, % [2, 6]: 1.1% | Premature discontinuation of study drug ([2]; bempedoic acid-treated patients, full population): 29.1% | Worsening hyperglycemia, % ([2]; in patients with diabetes at baseline): 22.7% | New onset diabetes in patients without diabetes at baseline, % ([2]; investigator-reported, 180 mg oral daily): 16.1% | tolerability of treatment ([2]; rates of discontinuation for any reason similar to placebo): well tolerated
